Tested on: 429239-143-T-J1-PDC complex spheroid viability
Assay: Anticancer human tumor 429239-143-T-J1-PDC patient-derived small cell lung carcinoma cell line growth inhibition [POLQ]
Details: for IC50: curve of first compound; for viability, T/C: stronger effect = lower value
Method: Multicellular complex tumor spheroid response to Polymerase (POL) inhibitors (novobiocin, ART-558, RP6685) in combination with a variety of drugs and investigational agents in selected tumor cell lines
The POL inhibitors (novobiocin, ART-558, and RP6685) were evaluated both individually and in combination with standard of care and investigational anticancer small molecules within a complex spheroid model of solid tumors. . Complex spheroids include a stromal component modeled by human endothelial cells (HUVEC) and fibroblasts modeled by human mesenchymal stem cells (MSCs). The concentration ranges selected for each drug and investigational agent were based upon clinically achievable concentrations if the clinical Cmax of the agent was known.
Compounds. The drugs and investigational agents: novobiocin (NSC847541), ART-558 (NSC835418), RP-6685 (NSC848927), peposertib (NSC802822), ceralasertib (NSC780249), elimusertib (NSC800525), camonsertib (NSC841442), AZD-1390 (NSC803789), olaparib (NSC753686), talazoparib (NSC767125), rucaparib (NSC756644), sotorasib (NSC818433), MRTX-1133 (NSC836407), SN-38 (NSC673596), topotecan (NSC609699), epotoside (NSC141540), doxorubicin (NSC123127), gemcitabine (NSC613327), 5-fluorouracil (NSC19893), paclitaxel (NSC125973), vemurafenib (NSC761431), MSA-2 (NSC828583), SN-011 (NSC837082), adavosertib (NSC754352), prexasertib (NSC758257), carboplatin (NSC241240) and oxaliplatin (NSC266046), were obtained from the National Cancer Institute (NCI) Developmental Therapeutics Program Chemical Repository (21). The FDA-approved anticancer drug set is available from the Developmental Therapeutics Program at https://dtp.cancer.gov/organization/dscb/obtaining/. […] The stock solutions were prepared in dimethyl sulfoxide (DMSO, Sigma-Aldrich, St. Louis, MO, cat. D2650), except for the platinum compounds which were prepared in saline (Quality Biological, Gaithersburg, MD, cat. 114-055-101), at 800-fold the tested concentration and stored at -70 degrees C prior to their use. All drugs and investigational agents were tested over a range starting from a high concentration at or near the clinical Cmax and decreasing in half-log increments. If the clinical Cmax for an agent had not been determined, the highest concentration tested was 10 microM, except for SN-38, which was tested at a high concentration of 1 microM.
Cell Culture. All cells were maintained in an incubator at 37 degrees C and 5% CO2 with 95% humidity. The PDC lines were cultured according to standard operating procedures established by the NCI PDMR (https://pdmr.cancer.gov). Table 3 of the manuscript, lists the cell lines along with the number of the three cell types plated to form the mct-spheroids and media for tumor cell growth. After thawing, all PDC lines, except 997537-175-T-J1-PDC and 415267-285-R-J2-PDC, were cultured in Matrigel-coated flasks prepared with a working solution of 1X Ham's F-12 nutrient mix, without supplementation (Thermo Fisher Scientific, cat. 11765054), 100 U/mL penicillin-streptomycin (Thermo Fisher Scientific, cat. 15140122), and 2.5% Matrigel (Corning Inc., Corning, NY, cat. 354248) for the first three passages. The two PDC lines 997537-175-T-J1-PDC and 415267-285-R-J2-PDC were cultured on uncoated flasks. The 857933-349-R-J2-PDC line was cultured in 6C/Colon 1B media containing advanced DMEM/F-12 (Thermo Fisher Scientific, cat. 12634028), 10 mM HEPES (Thermo Fisher Scientific, cat. 15630080), 1X GlutaMAX supplement (Thermo Fisher Scientific, cat. 35050061), 0.1 mg/mL primocin (InvivoGen, San Diego, CA, cat. ant-pm-2), 10% defined fetal bovine serum, heat inactivated (HyClone Laboratories Inc., Logan, UT, cat. SH30070.03HI), 50% L-WRN conditioned media (ATCC, cat. CRL-3276), 1.25 mM N-Acetyl-L-cysteine (Sigma-Aldrich, cat. A9165), 10 mM nicotinamide (Sigma-Aldrich, cat. N0636), 1X B-27 supplement (Thermo Fisher Scientific, cat. 17504044), 1X N-2 supplement (Thermo Fisher Scientific, cat. […]

[1] = second compound 0.0316 µM, first compound 0.0316 µM
[2] = second compound 0.0316 µM, first compound 0.1 µM
[3] = second compound 0.0316 µM, first compound 0.316 µM
[4] = second compound 0.0316 µM, first compound 1 µM
[5] = second compound 0.1 µM, first compound 0.0316 µM
[6] = second compound 0.1 µM, first compound 0.1 µM
[7] = second compound 0.1 µM, first compound 0.316 µM
[8] = second compound 0.1 µM, first compound 1 µM
[9] = second compound 0.316 µM, first compound 0.0316 µM
[10] = second compound 0.316 µM, first compound 0.1 µM
[11] = second compound 0.316 µM, first compound 0.316 µM
[12] = second compound 0.316 µM, first compound 1 µM
[13] = second compound 1 µM, first compound 0.0316 µM
[14] = second compound 1 µM, first compound 0.1 µM
[15] = second compound 1 µM, first compound 0.316 µM
[16] = second compound 1 µM, first compound 1 µM
[17] = second compound 3.16 µM, first compound 0.0316 µM
[18] = second compound 3.16 µM, first compound 0.1 µM
[19] = second compound 3.16 µM, first compound 0.316 µM
[20] = second compound 3.16 µM, first compound 1 µM
[21] = second compound 10 µM, first compound 0.0316 µM
[22] = second compound 10 µM, first compound 0.1 µM
[23] = second compound 10 µM, first compound 0.316 µM
[24] = second compound 10 µM, first compound 1 µM
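Also: luminescence signal used as surrogate measure of viable cells; spheroids exposed to compounds for seven days before readout.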
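For viability, T/C in this document: 100% = DMSO vehicle control viability as luminescence relative to vehicle.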

CCCS(=O)(=O)Nc1ccc(F)c(C(=O)c2c[nH]c3ncc(-c4ccc(Cl)cc4)cc23)c1F + Cc1cccc(N(C)C(=O)C2C(O)CCN2c2nc(C)cc(C(F)(F)F)c2C#N)c1
IC50 (second compound 0.0316 µM): > 10 µM
IC50 (second compound 0.1 µM): > 10 µM
IC50 (second compound 0.316 µM): > 10 µM
IC50 (second compound 1 µM): > 10 µM
IC50 (second compound 3.16 µM): > 10 µM
IC50 (second compound 10 µM): > 10 µM
viability, T/C [1]: 91.3%
viability, T/C [2]: 106%
viability, T/C [3]: 88.6%
viability, T/C [4]: 93.4%
viability, T/C (second compound 0.0316 µM, first compound 3.16 µM): 94%
viability, T/C (second compound 0.0316 µM, first compound 10 µM): 81.7%
viability, T/C [5]: 92.2%
viability, T/C [6]: 89.9%
viability, T/C [7]: 89.4%
viability, T/C [8]: 97.2%
viability, T/C (second compound 0.1 µM, first compound 3.16 µM): 93.6%
viability, T/C (second compound 0.1 µM, first compound 10 µM): 82.8%
viability, T/C [9]: 99.5%
viability, T/C [10]: 92.8%
viability, T/C [11]: 96.9%
viability, T/C [12]: 94.1%
viability, T/C (second compound 0.316 µM, first compound 3.16 µM): 87.5%
viability, T/C (second compound 0.316 µM, first compound 10 µM): 79%
viability, T/C [13]: 103%
viability, T/C [14]: 87.7%
viability, T/C [15]: 92.3%
viability, T/C [16]: 91%
viability, T/C (second compound 1 µM, first compound 3.16 µM): 90.3%
viability, T/C (second compound 1 µM, first compound 10 µM): 77.5%
viability, T/C [17]: 98.8%
viability, T/C [18]: 96.9%
viability, T/C [19]: 97.4%
viability, T/C [20]: 94.2%
viability, T/C (second compound 3.16 µM, first compound 3.16 µM): 105%
viability, T/C (second compound 3.16 µM, first compound 10 µM): 79.5%
viability, T/C [21]: 100%
viability, T/C [22]: 105%
viability, T/C [23]: 85.2%
viability, T/C [24]: 93.5%
viability, T/C (second compound 10 µM, first compound 3.16 µM): 98.8%
viability, T/C (second compound 10 µM, first compound 10 µM): 81.9%

CCc1c2c(nc3ccc(O)cc13)-c1cc3c(c(=O)n1C2)COC(=O)[C@]3(O)CC + Cc1cccc(N(C)C(=O)C2C(O)CCN2c2nc(C)cc(C(F)(F)F)c2C#N)c1
IC50 (second compound 0.0316 µM): < 0.00316 µM
IC50 (second compound 0.1 µM): < 0.00316 µM
IC50 (second compound 0.316 µM): < 0.00316 µM
IC50 (second compound 1 µM): < 0.00316 µM
IC50 (second compound 3.16 µM): < 0.00316 µM
IC50 (second compound 10 µM): < 0.00316 µM
viability, T/C (second compound 0.0316 µM, first compound 0.00316 µM): 16.9%
viability, T/C (second compound 0.0316 µM, first compound 0.01 µM): 17.8%
viability, T/C [1]: 16.1%
viability, T/C [2]: 17.5%
viability, T/C [3]: 13.3%
viability, T/C [4]: 5.41%
viability, T/C (second compound 0.1 µM, first compound 0.00316 µM): 17.8%
viability, T/C (second compound 0.1 µM, first compound 0.01 µM): 18.5%
viability, T/C [5]: 17.6%
viability, T/C [6]: 19%
viability, T/C [7]: 13.6%
viability, T/C [8]: 4.17%
viability, T/C (second compound 0.316 µM, first compound 0.00316 µM): 16.2%
viability, T/C (second compound 0.316 µM, first compound 0.01 µM): 20.4%
viability, T/C [9]: 16.4%
viability, T/C [10]: 17.6%
viability, T/C [11]: 14.1%
viability, T/C [12]: 6.26%
viability, T/C (second compound 1 µM, first compound 0.00316 µM): 21.1%
viability, T/C (second compound 1 µM, first compound 0.01 µM): 16.7%
viability, T/C [13]: 17.5%
viability, T/C [14]: 16.5%
viability, T/C [15]: 17.5%
viability, T/C [16]: 3.94%
viability, T/C (second compound 3.16 µM, first compound 0.00316 µM): 19.9%
viability, T/C (second compound 3.16 µM, first compound 0.01 µM): 17.4%
viability, T/C [17]: 21.6%
viability, T/C [18]: 16.1%
viability, T/C [19]: 14.9%
viability, T/C [20]: 5.15%
viability, T/C (second compound 10 µM, first compound 0.00316 µM): 18.9%
viability, T/C (second compound 10 µM, first compound 0.01 µM): 17.5%
viability, T/C [21]: 20.7%
viability, T/C [22]: 17.5%
viability, T/C [23]: 17.9%
viability, T/C [24]: 3.41%
